≈ marks a conversion by molar mass, not a printed value. Starred links: 1 amine or outer side, 2 acyl side, 3 side chain; linkers in the order of their positions; H or OH if unused. Positions of bridges follow the written chain, without caps; N, C: chain ends. Non-standard residues stand in square brackets, D forms with d. Residues, ends and D or L forms follow the SMILES beside them. *: point of attachment. pTerphenylCO(4''-OnC5H11) = CCCCCOc1ccc(-c2ccc(-c3ccc(C(=O)*)cc3)cc2)cc1; Orn(4R-OH,5R-OH) = O=C([C@H](C[C@@H](O)[C@@H](O)N[*:3])N[*:1])[*:2]; hTyr(3S-OH,4S-OH) = N[C@H](C(=O)O)[C@H](O)[C@@H](O)c1ccc(O)cc1; Pro(3S-OH,4S-Me) = C[C@H]1CN[C@H](C(=O)O)[C@H]1O; Hyp = O=C(O)[C@@H]1C[C@@H](O)CN1
Key:
Assay type in all cases: functional
[1] = tested on: Pichia kudriavzevii; test: Fungicidal activity against Candida krusei ATCC 6258 bloodstream forms after 48 hrs by M27-A3 microdilution method
[2] = tested on: Pichia kudriavzevii; test: Fungicidal activity against Candida krusei CK1 bloodstream forms after 24 hrs by time-kill analysis; conditions: CK1, 24 h
[3] = tested on: Pichia kudriavzevii; test: Antifungal activity against Candida krusei CK1 bloodstream forms after 24 hrs by time-kill analysis; conditions: CK1, 24 h
[4] = tested on: Pichia kudriavzevii; test: Antifungal activity against Candida krusei ATCC 6258 bloodstream forms assessed as minimum concentration producing >= 50% growth reduction after 48 hrs by M27-A3 microdilution method; conditions: ATCC 6258, 48 h
[5] = tested on: Pichia kudriavzevii; test: Antifungal activity against Candida krusei ATCC 6258 bloodstream forms assessed as time to achieve 50% fungal growth reduction at 2 mg/L by time-kill analysis
[6] = tested on: Pichia kudriavzevii; test: Antifungal activity against Candida krusei ATCC 6258 bloodstream forms assessed as time to achieve 90% fungal growth reduction at 0.12 mg/L by time-kill analysis
[7] = tested on: Pichia kudriavzevii; test: Antifungal activity against Candida krusei ATCC 6258 bloodstream forms assessed as time to achieve 90% fungal growth reduction at 0.5 mg/L by time-kill analysis
[8] = tested on: Pichia kudriavzevii; test: Antifungal activity against Candida krusei ATCC 6258 bloodstream forms after 24 hrs by time-kill analysis; conditions: ATCC 6258, 24 h
[9] = tested on: Pichia kudriavzevii; test: Fungicidal activity against Candida krusei ATCC 6258 bloodstream forms after 24 hrs by time-kill analysis; conditions: ATCC 6258, 24 h
[10] = tested on: Pichia kudriavzevii; test: Antifungal activity against Candida krusei ATCC 6258 bloodstream forms assessed as minimum concentration producing >= 50% growth reduction after 24 hrs by M27-A3 microdilution method; conditions: ATCC 6258, 24 h
[11] = tested on: Pichia kudriavzevii; test: Antifungal activity against Candida krusei EU220 bloodstream forms after 24 hrs by time-kill analysis; conditions: EU220, 24 h
[12] = tested on: Pichia kudriavzevii; test: Antifungal activity against Candida krusei ATCC 6258 bloodstream forms assessed as time to achieve 99% fungal growth reduction at 0.5 mg/L by time-kill analysis
[13] = tested on: Pichia kudriavzevii; test: Fungicidal activity against Candida krusei EU220 bloodstream forms after 24 hrs by time-kill analysis; conditions: EU220, 24 h
[14] = tested on: Pichia kudriavzevii; test: Antifungal activity against Candida krusei CK2 bloodstream forms after 24 hrs by time-kill analysis; conditions: CK2, 24 h
[15] = tested on: Pichia kudriavzevii; test: Antifungal activity against Candida krusei ATCC 6258 bloodstream forms assessed as time to achieve 99.9% fungal growth reduction at 0.12 mg/L by time-kill analysis
[16] = tested on: Pichia kudriavzevii; test: Antifungal activity against Candida krusei CY118 bloodstream forms after 24 hrs by time-kill analysis; conditions: CY118, 24 h
[17] = tested on: Pichia kudriavzevii; test: Fungicidal activity against Candida krusei CK2 bloodstream forms after 24 hrs by time-kill analysis; conditions: CK2, 24 h
[18] = tested on: Pichia kudriavzevii; test: Antifungal activity against Candida krusei ATCC 6258 bloodstream forms assessed as minimum concentration producing >= 100% growth reduction after 48 hrs by M27-A3 microdilution method; conditions: ATCC 6258, 48 h
[19] = tested on: Pichia kudriavzevii; test: Antifungal activity against Candida krusei EU123 bloodstream forms after 24 hrs by time-kill analysis; conditions: EU123, 24 h
[20] = tested on: Pichia kudriavzevii; test: Fungicidal activity against Candida krusei CK6 bloodstream forms after 24 hrs by time-kill analysis; conditions: CK6, 24 h
[21] = tested on: Pichia kudriavzevii; test: Antifungal activity against Candida krusei ATCC 6258 bloodstream forms assessed as time to achieve 99.9% fungal growth reduction at 0.5 mg/L by time-kill analysis
[22] = tested on: Pichia kudriavzevii; test: Antifungal activity against Candida krusei ATCC 6258 bloodstream forms assessed as time to achieve 99% fungal growth reduction at 0.12 mg/L by time-kill analysis
[23] = tested on: Pichia kudriavzevii; test: Antifungal activity against Candida krusei ATCC 6258 bloodstream forms assessed as time to achieve 90% fungal growth reduction at 2 mg/L by time-kill analysis
[24] = tested on: Pichia kudriavzevii; test: Antifungal activity against Candida krusei CK6 bloodstream forms after 24 hrs by time-kill analysis; conditions: CK6, 24 h
[25] = tested on: Pichia kudriavzevii; test: Antifungal activity against Candida krusei ATCC 6258 bloodstream forms assessed as time to achieve 50% fungal growth reduction at 8 mg/L by time-kill analysis
[26] = tested on: Pichia kudriavzevii; test: Antifungal activity against Candida krusei ATCC 6258 bloodstream forms assessed as time to achieve 99.9% fungal growth reduction at 8 mg/L by time-kill analysis
[27] = tested on: Pichia kudriavzevii; test: Antifungal activity against Candida krusei ATCC 6258 bloodstream forms assessed as time to achieve 50% fungal growth reduction at 0.12 mg/L by time-kill analysis
[28] = tested on: Pichia kudriavzevii; test: Fungicidal activity against Candida krusei EU123 bloodstream forms after 24 hrs by time-kill analysis; conditions: EU123, 24 h
[29] = tested on: Pichia kudriavzevii; test: Antifungal activity against Candida krusei ATCC 6258 bloodstream forms assessed as minimum concentration producing >= 100% growth reduction after 24 hrs by M27-A3 microdilution method; conditions: ATCC 6258, 24 h
[30] = tested on: Pichia kudriavzevii; test: Antifungal activity against Candida krusei CK18 bloodstream forms after 24 hrs by time-kill analysis; conditions: CK18, 24 h
[31] = tested on: Pichia kudriavzevii; test: Antifungal activity against Candida krusei ATCC 6258 bloodstream forms assessed as time to achieve 50% fungal growth reduction at 0.5 mg/L by time-kill analysis
[32] = tested on: Pichia kudriavzevii; test: Antifungal activity against Candida krusei ATCC 6258 bloodstream forms assessed as time to achieve 99.9% fungal growth reduction at 2 mg/L by time-kill analysis
[33] = tested on: Pichia kudriavzevii; test: Antifungal activity against Candida krusei ATCC 6258 bloodstream forms assessed as time to achieve 90% fungal growth reduction at 8 mg/L by time-kill analysis
[34] = tested on: Pichia kudriavzevii; test: Antifungal activity against Candida krusei ATCC 6258 bloodstream forms assessed as time to achieve 99% fungal growth reduction at 2 mg/L by time-kill analysis
[35] = tested on: Pichia kudriavzevii; test: Fungicidal activity against Candida krusei CK18 bloodstream forms after 24 hrs by time-kill analysis; conditions: CK18, 24 h
[36] = tested on: Pichia kudriavzevii; test: Fungicidal activity against Candida krusei CY118 bloodstream forms after 24 hrs by time-kill analysis; conditions: CY118, 24 h
[37] = tested on: Pichia kudriavzevii; test: Antifungal activity against Candida krusei ATCC 6258 bloodstream forms assessed as time to achieve 99% fungal growth reduction at 8 mg/L by time-kill analysis

Compound: CCCCCOc1ccc(-c2ccc(-c3ccc(C(=O)N[C@H]4C[C@@H](O)[C@@H](O)NC(=O)[C@@H]5[C@@H](O)[C@@H](C)CN5C(=O)[C@H]([C@@H](C)O)NC(=O)[C@H]([C@H](O)[C@@H](O)c5ccc(O)cc5)NC(=O)[C@@H]5C[C@@H](O)CN5C(=O)[C@H]([C@@H](C)O)NC4=O)cc3)cc2)cc1 [ANIDULAFUNGIN] ({pTerphenylCO(4''-OnC5H11)}-[Orn(4R-OH,5R-OH)]T[Hyp][hTyr(3S-OH,4S-OH)]T[Pro(3S-OH,4S-Me)]; lactam 1-C)
- MFC50 [1]: 0.25 µg/mL (≈ 0.219 µM)
- MFC90 [1]: 0.5 µg/mL (≈ 0.438 µM)
- MFC ([1]; Pichia kudriavzevii, ATCC 6258, 48 h): 0.12 µg/mL (≈ 0.105 µM)
- MFC [2]: 0.5 µg/mL (≈ 0.438 µM)
- MIC [3]: 0.12 µg/mL (≈ 0.105 µM)
- MIC50 [4]: 0.12 µg/mL (≈ 0.105 µM)
- MIC90 [4]: 0.25 µg/mL (≈ 0.219 µM)
- Time [5]: 1.9 h
- Time [6]: 25.5 h
- Time [7]: 22.4 h
- MIC [8]: 0.03 µg/mL (≈ 0.0263 µM)
- MFC [9]: 0.25 µg/mL (≈ 0.219 µM)
- MIC50 [10]: 0.12 µg/mL (≈ 0.105 µM)
- MIC90 [10]: 0.12 µg/mL (≈ 0.105 µM)
- MIC [11]: 0.12 µg/mL (≈ 0.105 µM)
- Time [12]: >48 h
- MFC [13]: 0.12 µg/mL (≈ 0.105 µM)
- MIC [14]: 0.06 µg/mL (≈ 0.0526 µM)
- Time [15]: >48 h
- MIC [16]: 0.5 µg/mL (≈ 0.438 µM)
- MFC [17]: 0.5 µg/mL (≈ 0.438 µM)
- MIC50 [18]: 0.25 µg/mL (≈ 0.219 µM)
- MIC90 [18]: 0.5 µg/mL (≈ 0.438 µM)
- MIC [19]: 0.12 µg/mL (≈ 0.105 µM)
- MFC [20]: 0.25 µg/mL (≈ 0.219 µM)
- Time [21]: >48 h
- Time [22]: >48 h
- Time [23]: 6.4 h
- MIC [24]: 0.12 µg/mL (≈ 0.105 µM)
- Time [25]: 2.1 h
- Time [26]: 20.68 h
- Time [27]: 7.7 h
- MFC [28]: 0.5 µg/mL (≈ 0.438 µM)
- MIC50 [29]: 0.12 µg/mL (≈ 0.105 µM)
- MIC90 [29]: 0.25 µg/mL (≈ 0.219 µM)
- MIC [30]: 0.12 µg/mL (≈ 0.105 µM)
- Time [31]: 6.7 h
- Time [32]: 19.1 h
- Time [33]: 6.9 h
- Time [34]: 12.7 h
- MFC [35]: 0.5 µg/mL (≈ 0.438 µM)
- MFC [36]: 8 µg/mL (≈ 7.02 µM)
- Time [37]: 13.8 h
